Holding throughout (assay): LDH cytotoxicity assay after light-triggered release
Common to all, as to type: cell-based

For data set [1], the system named is MDA-MB-231 breast cancer cells. As to conditions: pulsed laser-induced release (25 mW, 160 fs, 2 min) from NS@DNA1@DTX, FIG. 7A; 24 h. As for the experimental part: (§1) Cellular cytotoxicity resulting from light-triggered release of DTX and LAP from both dsDNA and HSA nanohost molecules was evaluated. Cells were irradiated, according to one or more embodiments, with either a CW laser imparting 1.5 W of power or with a pulsed-laser using a Ti:Sapphire tunable laser operating at 250 kHz with an average power of 25 mW and 160-fs pulsed-laser power for 2 min.
(§2) After the guest molecules were released, each sample was treated at 37° C., 5% CO2 for a treatment period of 24 h to allow time for the released drug guest molecules to interact with the cells. Cell death was evaluated with a lactate dehydrogenase (LDH) cytotoxicity assay. Percent cytotoxicity values were calculated considering 10% cell death in the control experiment, NS @host with no laser treatment.

Data set [2] relates to SKBR3 breast cancer cells. As to conditions: released LAP; HER2 expressing breast cancer cells vs noncancerous cells. As for the experimental part: as §1, §2
(§3) LAP was released from both an NS @DNA nanohost control and an NS @HSA nanohost in both SKBR3 breast cancer cells and RAW 264.7 macrophage cells.

The test system of data set [3] is RAW 264.7 macrophage cells. The settings on record: macrophages lack the HER2 receptor. As for the experimental part: as §1, §2, §3

Structures are written as SMILES.

Turning to `CC(=O)O[C@@]12CO[C@@H]1C[C@H](O)[C@@]1(C)C(=O)[C@H](O)C3=C(C)[C@@H](OC(=O)[C@H](O)[C@@H](NC(=O)OC(C)(C)C)c4ccccc4)C[C@@](O)([C@@H](OC(=O)c4ccccc4)[C@H]21)C3(C)C` [DTX, docetaxel], in data set [1], the “cell death (LDH)” value is “No increased cell death”.
Take `CS(=O)(=O)CCNCc1ccc(-c2ccc3ncnc(Nc4ccc(OCc5cccc(F)c5)c(Cl)c4)c3c2)o1` [LAP, lapatinib]: the “selectivity of cell death” value in data set [2] is recorded as “selectively induces cell death in HER2 expressing breast cancer cells, without affecting noncancerous cells”. For the same molecule, the cytotoxicity in macrophages entry in data set [3] was “does not cause cytotoxicity”.

These data come from patent publication US20200164072A1, “NANOCOMPLEXES FOR REMOTELY-TRIGGERED GUEST MOLECULE RELEASE AND METHODS FOR FABRICATING THE SAME” (William Marsh Rice University, priority 2018, published 2020).
